Entries after “also recorded” stand apart in the source; their conditions may differ.
Assays:
CDK9 [1] = biological target: T1, CDK9 (Homo sapiens, UniProt P50750); assay: CDK9 degradation in MOLT4 cells (immunoblot); format: cell-based; set-up: endogenous in cells; host or cells: MOLT4, 293T, K562, NCI-H1299, LNCaP; conditions: 6 h treatment
Experimental: All the cell lines were maintained in a humidified incubator at 37° C. and 5% CO2.
Data analysis was performed using GraphPad Prism software (version 9) unless indicated otherwise. All graphs presented represent the mean±standard deviation of the mean (SD) unless otherwise stated.
Target sequence in this assay (P50750 whole entry): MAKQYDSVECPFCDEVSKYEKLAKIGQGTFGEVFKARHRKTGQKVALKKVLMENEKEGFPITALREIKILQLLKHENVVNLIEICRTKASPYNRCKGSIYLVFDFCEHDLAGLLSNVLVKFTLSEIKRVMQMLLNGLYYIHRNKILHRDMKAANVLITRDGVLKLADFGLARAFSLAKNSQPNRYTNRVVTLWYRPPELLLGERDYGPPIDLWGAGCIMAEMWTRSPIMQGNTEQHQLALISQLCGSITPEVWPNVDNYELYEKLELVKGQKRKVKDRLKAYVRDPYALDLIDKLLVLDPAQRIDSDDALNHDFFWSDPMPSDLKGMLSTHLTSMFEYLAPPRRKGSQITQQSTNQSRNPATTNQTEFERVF

CDK10 = biological target: T2, CDK10 (Homo sapiens, UniProt Q15131); conditions: b290: Kinativ screening in MOLT4 lysates (Olson et al., 2018); cited from earlier work
T2 construct: endogenous in cells; host or cells: MOLT4

[2] = test system: LNCaP prostate cancer cells and H1299 lung cancer cells; assay: Cell killing (MTS) with or without KEAP1 siRNA knockdown; format: cell-based, Human; conditions: KEAP1 siRNA vs control siRNA 48 h; compound 0.1 mM (LNCaP) or 0.3 mM (H1299) for 24 h
Experimental: FIGS. 19A to 19B show percentages of cell killing in LNCaP (FIG. 19A) and H1299 (FIG. 19B) cells with or without KEAP1 knockdown. LNCaP and H1299 cells were treated with control siRNA or siRNAs targeting KEAP1 for 48 h and then reseeded and treated with indicated compound (0.1 mM for LNCaP cells and 0.3 mM for H1299 cells) for 24 h. The cell viability was then determined by MTS assay. The data are presented as mean±SD from three replicate cell cultures in a representative experiment. Data are representative of two independent experiments. Statistical significance was calculated with unpaired two-tailed Student's t-tests. **P<0.01; ***P<0.001; NS: not significant.
Viability (MTS) assays in various cancer cells followed the methods described in our previous report (Khan et al., 2019). The data were expressed as average % cell viability and fitted in non-linear regression curves using GraphPad Prism 9 (GraphPad Software, La Jolla, CA, USA).

CDK9 [3] = biological target: T1, CDK9; conditions: Table 1; b281 prints these figures as IC50; cited from earlier work
Target sequence in this assay (P50750 whole entry, species assumed): as the sequence (P50750 whole entry) above
Target sequence in this assay (O60563 whole entry partner, species assumed): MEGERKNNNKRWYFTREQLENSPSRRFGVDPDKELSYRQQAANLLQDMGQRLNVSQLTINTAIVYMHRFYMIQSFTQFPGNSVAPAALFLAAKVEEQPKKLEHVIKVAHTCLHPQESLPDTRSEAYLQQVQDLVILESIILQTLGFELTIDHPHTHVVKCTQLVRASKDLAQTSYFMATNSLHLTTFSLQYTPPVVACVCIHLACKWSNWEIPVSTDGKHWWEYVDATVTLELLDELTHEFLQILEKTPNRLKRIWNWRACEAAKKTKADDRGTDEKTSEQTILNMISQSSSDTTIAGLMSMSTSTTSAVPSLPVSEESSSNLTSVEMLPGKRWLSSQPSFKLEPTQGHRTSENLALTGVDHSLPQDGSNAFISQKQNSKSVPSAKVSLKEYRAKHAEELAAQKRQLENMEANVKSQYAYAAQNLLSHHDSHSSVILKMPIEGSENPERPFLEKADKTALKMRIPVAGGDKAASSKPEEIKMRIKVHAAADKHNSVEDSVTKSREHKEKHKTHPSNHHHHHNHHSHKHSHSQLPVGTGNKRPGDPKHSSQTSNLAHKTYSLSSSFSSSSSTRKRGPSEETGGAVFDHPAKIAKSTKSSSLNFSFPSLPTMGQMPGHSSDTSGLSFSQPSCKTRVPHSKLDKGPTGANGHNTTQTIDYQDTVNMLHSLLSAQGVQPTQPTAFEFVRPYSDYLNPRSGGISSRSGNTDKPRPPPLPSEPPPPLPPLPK

[4] = test system: LNCaP, 22RV1, PC3 and DU145 prostate cancer cell lines; assay: Viability (MTS) assay in prostate cancer cell lines; format: cell-based, Human; conditions: Homo sapiens, 72 h, read-out: EC50, anti-proliferation
Experimental: All the cell lines were maintained in a humidified incubator at 37° C. and 5% CO2. […] The data were expressed as average % cell viability and fitted in non-linear regression curves using GraphPad Prism 9 (GraphPad Software, La Jolla, CA, USA).

CDK9 [5] = biological target: T1, CDK9; assay: TMT-based global proteomics in MOLT4 cells; format: cell-based; set-up: endogenous in cells; host or cells: MOLT4; conditions: 0.1 μM 955 for 1 h and 6 h, 1 μM SNS-032 for 6 h
Text: Sample Preparation and LC-MS/MS analysis. Total protein from cell pellets was reduced, alkylated, and purified by chloroform/methanol extraction prior to digestion with sequencing grade modified porcine trypsin (Cat. No. V5111, Promega). Tryptic peptides were labeled using tandem mass tag isobaric labeling reagents (Cat. No. A34808, ThermoFisher) following the manufacturer's instructions and combined into one 11-plex sample group. The labeled peptide multiplex was separated into 46 fractions on a 100×1.0 mm Acquity BEH C18 column (Waters) using an UltiMate 3000 UHPLC system (Thermo) with a 50 min gradient from 99:1 to 60:40 bufferA:B (Buffer A: 0.1% formic acid, 0.5% acetonitrile; Buffer B: 0.1% formic acid, 99.9% acetonitrile. Both buffers adjusted to pH 10 with ammonium hydroxide for offline separation) ratio under basic pH conditions, and then consolidated into 18 super-fractions. […]
Data processing and analysis. Proteins were identified and MS3 reporter ions quantified using MaxQuant (version 2.0.3.0; Max Planck Institute) against the Homo sapiens UniprotKB database (March 2021) with a parent ion tolerance of 3 ppm, a fragment ion tolerance of 0.5 Da, and a reporter ion tolerance of 0.003 Da. Scaffold Q+S (Proteome Software) was used to verify MS/MS based peptide and protein identifications (protein identifications were accepted if they could be established with less than 1.0% false discovery and contained at least 2 identified peptides; protein probabilities were assigned by the Protein Prophet algorithm (Nesvizhskii et al., 2003) and to perform reporter ion-based statistical analysis. Protein TMT MS3 reporter ion intensity values were assessed for quality using ProteiNorm for a systematic evaluation of normalization methods (Graw et al., 2020). Cyclic loess normalization (Ritchie et al., 2015) was utilized since it had the highest intragroup correlation and the lowest variance amongst the samples. […]
Target sequence in this assay (P50750 whole entry): as the sequence (P50750 whole entry) above

CDK9 [6] = biological target: T1, CDK9; conditions: Olson et al., 2018; cited from earlier work
Target sequence in this assay (P50750 whole entry, species assumed): as the sequence (P50750 whole entry) above

T2 sequence (Q15131 whole entry): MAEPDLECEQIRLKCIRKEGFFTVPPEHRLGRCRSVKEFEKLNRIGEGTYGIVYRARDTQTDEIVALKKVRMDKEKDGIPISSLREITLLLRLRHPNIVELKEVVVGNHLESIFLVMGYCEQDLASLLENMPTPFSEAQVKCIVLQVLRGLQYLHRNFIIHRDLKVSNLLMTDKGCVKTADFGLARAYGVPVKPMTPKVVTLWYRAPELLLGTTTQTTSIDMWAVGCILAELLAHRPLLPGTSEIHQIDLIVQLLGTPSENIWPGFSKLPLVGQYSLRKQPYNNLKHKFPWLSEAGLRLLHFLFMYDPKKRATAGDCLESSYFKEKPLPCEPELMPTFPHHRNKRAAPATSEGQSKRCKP

EC50 [4] | CDK9 protein level (global proteome) (CDK9 [5]) | SMILES | CDK9 degradation with short-term treatment (CDK9 [1]) | binding of SNS-032 to CDK10 (CDK10) | effect of KEAP1 knockdown on cytotoxicity of the compound [2] | Binding Affinity, CDK9 (CDK9 [3]) | degradation selectivity among SNS-032 targets (CDK9 [6])
> 0.1 µM | no significant effect on CDK9 | CC(C)(C)c1cnc(CSc2cnc(NC(=O)C3CCNCC3)s2)o1 [SNS-032, N-(5-(((5-(tert-butyl)oxazol-2-yl)methyl)thio)thiazol-2-yl)piperidine-4-carboxamide, reference compound] | no degradation effect; also recorded: could not | very low binding affinity; also recorded: moderate binding | no significant effect | CDK9: 4 nM | –
– | – | CC(C)(C)c1cnc(CSc2cnc(NC(=O)C3CCN(CC(=O)NCCOCCOCCOCCNc4cccc5c4C(=O)N(C4CCC(=O)NC4=O)C5=O)CC3)s2)o1 (stereo not shown) [THAL-SNS-032] | – | – | – | – | could only degrade CDK9 but not other known SNS-032 targets
